Test results as given in paper PMC2682652 (PLoS ONE, 2009).

System: intraperitoneal MDA-MB-435 xenograft tumors
Assay: Tumor reduction study, peritoneal carcinomatosis
Assay type: in vivo, SCID-mice
Conditions: 6×1.85 MBq i.p., days 16-26 after inoculation, groups of 8 mice; p = 0.04
Description: To generate intraperitoneal xenograft tumors, 6–8 week old SCID-mice (Charles River, Sulzfeld, Germany) were injected i.p. with 1×10^7 MDA-MB435 tumor cells. Mice were weighed weekly and were sacrificed when the mean normal body weigth decreased <25% or when mice developped tumor side effects like ascites or reduced general condititon. All experiments were performed according to the German law for the protection of animals.
SCID-mice (Charles River, Sulzfeld, Germany) were injected i.p. with 1×10^7 MDA-MB-435 cells expressing firefly luciferase in 100 µl PBS. […] All experiments were performed three times. The animals were controlled daily until they were sacrificed.

Question: For `O=C([O-])CN(CCN(CC(=O)[O-])CC(=O)[O-])CCN(CC(=O)[O-])CC(=O)[O-].[213Bi+3]` [^213Bi-DTPA], which mean survival is on record?
Answer: Its mean survival is 48 days.
